Assay results published in US11306071B2, “Heterocyclic compounds as adenosine antagonists” (Nuvation Bio Inc., priority 2019, dated 2022).
pIC50: −log10 of the molar value.

Assays:
[1] = target: adenosine A2a (human) membrane (Homo sapiens (Human), UniProt P29274); experiment: A2A adenosine receptor radioligand binding assay ([3H] CGS-21680); details: radioligand [3H] CGS-21680 6 nM
Experimental: A second A2A adenosine receptor radioligand binding assay protocol was used. The protocol used adenosine A2a (human) membrane (PerkinElmer RBHA2AM400UA) at a concentration of 5 μg/well/100 μl and the radioligand [3H] CGS-21680 (Cat No. PerkinElmer-NET1021250UC) at a final concentration of 6 nM. Testing compounds were diluted with DMSO to make 8-point 4-fold serial dilution, starting at 0.2 mM. CGS-15943 was the reference compound. 1 μl of compounds/high control/low control was transferred to the assay plate according to a plate map, followed by 100 μl of membrane stocks and 100 μl of radioligand, in assay buffer (50 mM Tris-HCl, 10 mM MgCl2, 1 mM EDTA, pH 7.4). The plate was sealed and incubated at RT for 2 hours. Unifilter-96 GF/C filter plates (Perkin Elmer Cat #6005174) were soaked with 50 μl of 0.3% PEI per well for at least 0.5 hour at room temperature. When the binding assays were completed, the reaction mixtures were filtered through GF/C plates using Perkin Elmer Filtermate Harvester, and each plate washed 4 times with cold wash buffer (50 mM Tris-HCl, 154 mM NaCl, pH 7.4). The filter plates were dried for 1 hour at 50 degrees. After drying, the bottom of the filter plate wells was sealed, 50 μl of Perkin Elmer Microscint 20 cocktail was added, and the top of the filter plate was sealed. ^3H trapped on the filter was counted using Perkin Elmer MicroBeta2 Reader. The data were analyzed with GraphPad Prism 5 to obtain binding IC50 values. The “Inhibition [% Control]” was calculated using the equation: % Inh=(1-Background subtracted Assay value/Background subtracted HC value)*100, where HC is high control.

[2] = target: adenosine A1 (human) membrane (Homo sapiens (Human), UniProt P30542); experiment: A1 adenosine receptor radioligand binding assay ([3H] DPCPX); details: 200 nM compound; radioligand [3H] DPCPX 1 nM
adenosine A1 (human) membrane, sequence (P30542 whole entry): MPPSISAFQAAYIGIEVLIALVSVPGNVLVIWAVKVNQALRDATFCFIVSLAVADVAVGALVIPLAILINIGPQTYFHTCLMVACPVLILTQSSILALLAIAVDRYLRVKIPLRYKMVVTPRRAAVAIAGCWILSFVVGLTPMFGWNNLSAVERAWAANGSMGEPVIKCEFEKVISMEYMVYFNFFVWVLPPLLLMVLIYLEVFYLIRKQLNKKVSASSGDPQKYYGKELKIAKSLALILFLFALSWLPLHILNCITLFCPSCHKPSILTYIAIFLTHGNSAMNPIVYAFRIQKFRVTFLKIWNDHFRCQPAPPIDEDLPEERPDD
Experimental: A second A1 adenosine receptor radioligand binding assay protocol was used. The protocol used adenosine A1 (human) membrane (PerkinElmer ES-010-M400UA) at a concentration of 2.5 μg/well/100 μl and the radioligand [3H] DPCPX (Cat No. PerkinElmer-NET974250UC) at a final concentration of 1 nM. Testing compounds were tested at a final concentration of 200 nM. CGS-15943, the reference compound, was tested in an 8-point 4-fold serial dilution, starting at a top concentration of 1 μM. 1 μl of compounds/high control/low control was transferred to the assay plate according to a plate map, followed by 100 μl of membrane stocks and 100 μl of radioligand, in assay buffer (25 mM HEPES, 5 mM MgCl2, 1 mM CaCl2, 100 mM NaCl, pH 7.4). The plate was sealed and incubated at RT for 1 hour. Unifilter-96 GF/C filter plates (Perkin Elmer Cat #6005174) were soaked with 50 μl of 0.3% PEI per well for at least 0.5 hour at room temperature. When the binding assays were completed, the reaction mixtures were filtered through GF/C plates using Perkin Elmer Filtermate Harvester, and each plate washed 4 times with cold wash buffer (25 mM HEPES, 5 mM MgCl2, 1 mM CaCl2, 100 mM NaCl, pH 7.4). The filter plates were dried for 1 hour at 50 degrees. After drying, the bottom of the filter plate wells was sealed, 50 μl of Perkin Elmer Microscint 20 cocktail was added, and the top of the filter plate was sealed. ^3H trapped on the filter was counted using Perkin Elmer MicroBeta2 Reader. The data were analyzed with GraphPad Prism 5 to obtain binding IC50 values for the reference compound. The “Inhibition [% Control]” was calculated using the equation: % Inh=(1-Background subtracted Assay value/Background subtracted HC value)*100, where HC is high control.

[3] = target: HEK-293 cells expressing human recombinant adenosine A2A receptor (Homo sapiens (Human), UniProt P29274); experiment: cAMP assay (Assay 2), A2A receptor; type: cell-based
HEK-293 cells expressing human recombinant adenosine A2A receptor, sequence (P29274 whole entry): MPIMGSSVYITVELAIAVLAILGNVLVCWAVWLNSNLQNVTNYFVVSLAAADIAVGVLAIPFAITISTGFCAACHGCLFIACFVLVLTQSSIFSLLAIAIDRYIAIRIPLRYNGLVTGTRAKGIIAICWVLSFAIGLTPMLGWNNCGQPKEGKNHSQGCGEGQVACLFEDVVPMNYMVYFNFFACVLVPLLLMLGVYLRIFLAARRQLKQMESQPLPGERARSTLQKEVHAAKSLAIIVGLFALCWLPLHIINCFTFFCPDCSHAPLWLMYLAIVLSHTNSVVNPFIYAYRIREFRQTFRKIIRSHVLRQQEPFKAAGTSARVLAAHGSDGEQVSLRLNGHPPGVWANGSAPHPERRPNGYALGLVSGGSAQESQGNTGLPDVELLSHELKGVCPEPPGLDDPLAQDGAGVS
Experimental: The functional activity of compounds was tested using Assay 2, below, to detect the presence of cAMP. Assay 1 is an alternative assay for this purpose. Activation of G-protein coupled receptors (such as A2A) results in activation of adenylyl cyclase which converts ATP into cAMP which is used as a downstream signaling molecule. Therefore, molecules which act as GPCR (or specifically A2A receptor) antagonists cause a decrease in intracellular cAMP concentration.
Assay 2 (Table B2): This assay used HEK-293 cells expressing human recombinant adenosine A2A receptor (or, alternatively, A1 receptor) that were grown prior to the test in media without antibiotic. 100 nL of test articles at 100x of final concentration were transferred to assay plate by Echo. Cells were washed twice with 5 mL of PBS and 10 μL of cells were mixed with 5 mL PBS. After aspirating the PBS and adding 1.5 mL versine, cells were incubated at 37° C. for 2-5 min. After centrifugation, 4 mL of medium was added and adjusted cell density to 5,000 cells/well with Stimulation Buffer. 10 μL of cells were aliquoted to the assay plate, centrifuged at 1000 rpm for 1 minute, and incubated for 60 minutes at room temperature. 5 μL 4× Eu-cAMP tracer solution and 5 μL 4× Ulight™-anti-cAMP solution were added to assay plate, followed by centrifugation and 60-minute incubation at room temperature. Plates were read on EnVision.

adenosine A2a (human) membrane, sequence (P29274 whole entry): as above

pIC50 [1]	inhibition at 0.2 µM [2] [%]	pIC50 [3]	A1 binding inhibition at 200 nM (%) [2] [%]	Compound
8.14	–	–	–	CC(NC(=O)c1nc(-c2ccc3ncccc3c2)c(-c2ccn(C)n2)nc1N)c1ncccn1 (centres unmarked) [Compound No. 460, 3-amino-5-(1-methyl-1H-pyrazol-3-yl)-N-(1-(pyrimidin-2-yl)ethyl)-6-(quinolin-6-yl)pyrazine-2-carboxamide]
–	19	5.85	–	CC(Oc1nc(-c2cc(Cl)c3ncccc3c2)c(-c2ccc(F)cc2)nc1N)c1ccccn1 (centres unmarked) [Compound No. 103, 5-(8-chloroquinolin-6-yl)-6-(4-fluorophenyl)-3-(1-(pyridin-2-yl)ethoxy)pyrazin-2-amine]
7.92	–	–	92	CC(NC(=O)c1nc(-c2cc(Cl)c3ncccc3c2)c(-c2ccccc2)nc1N)c1ccccn1 (centres unmarked) [Compound No. 119, 3-amino-6-(8-chloroquinolin-6-yl)-5-phenyl-N-(1-(pyridin-2-yl)ethyl)pyrazine-2-carboxamide]
8.96	–	–	89	C[C@@H](NC(=O)c1nc(-c2cc(Cl)c3ncccc3c2)c(-c2ccccc2)nc1N)c1ccccn1 [Compound No. 123, (R)-3-amino-6-(8-chloroquinolin-6-yl)-5-phenyl-N-(1-(pyridin-2-yl)ethyl)pyrazine-2-carboxamide]
–	54	6.28	–	N#Cc1cc(-c2nc(N)cnc2-c2cc(Cl)c3ncccc3c2)ccc1F [Compound No. 2-13, 5-(6-amino-3-(8-chloroquinolin-6-yl)pyrazin-2-yl)-2-fluorobenzonitrile]
8.80	77	–	–	C[C@@H](NC(=O)c1nc(-c2cc(Cl)c3[nH]ncc3c2)c(-c2ccn(C)n2)nc1N)c1ccccn1 [Compound No. 112, (R)-3-amino-6-(7-chloro-1H-indazol-5-yl)-5-(1-methyl-1H-pyrazol-3-yl)-N-(1-(pyridin-2-yl)ethyl)pyrazine-2-carboxamide]
8.41	92	–	–	CC(NC(=O)c1nc(-c2ccc3ncccc3c2)c(-c2ccccc2)nc1N)c1cccc(C#N)n1 (centres unmarked) [Compound No. 111, 3-amino-N-(1-(6-cyanopyridin-2-yl)ethyl)-5-phenyl-6-(quinolin-6-yl)pyrazine-2-carboxamide]
8.46	95	–	–	CC(NC(=O)c1nc(-c2cc(Cl)c3ncccc3c2)c(-c2ccccc2)nc1N)c1cccc(C#N)n1 (centres unmarked) [Compound No. 114, 3-amino-6-(8-chloroquinolin-6-yl)-N-(1-(6-cyanopyridin-2-yl)ethyl)-5-phenylpyrazine-2-carboxamide]
6.57	56	–	–	C[C@@H](NC(=O)c1nc(-c2ccc3ncccc3c2)c(-c2cccc(C#N)c2)nc1N)c1cccc(C#N)n1 [Compound No. 117, (R)-3-amino-5-(3-cyanophenyl)-N-(1-(6-cyanopyridin-2-yl)ethyl)-6-(quinolin-6-yl)pyrazine-2-carboxamide]
–	–	6.58	–	CCN(CC)CCNc1nc(-c2ccc3ncccc3c2)c(-c2ccccc2)nc1N [compound 1, N2-(2-(diethylamino)ethyl)-5-phenyl-6-(quinolin-6-yl)pyrazine-2,3-diamine]
8.41	84	–	–	CC(NC(=O)c1nc(-c2ccc3ncccc3c2)c(-c2ccn(C)n2)nc1N)c1cccc(C#N)n1 (centres unmarked) [Compound No. 127, 3-amino-N-(1-(6-cyanopyridin-2-yl)ethyl)-5-(1-methyl-1H-pyrazol-3-yl)-6-(quinolin-6-yl)pyrazine-2-carboxamide]
–	–	7.14	–	CC(NC(=O)c1nc(-c2cc(Cl)c3ncccc3c2)c(-c2ccn(C)n2)nc1N)c1cccc(C#N)n1 (centres unmarked) [Compound No. 99, 3-amino-6-(8-chloroquinolin-6-yl)-N-(1-(6-cyanopyridin-2-yl)ethyl)-5-(1-methyl-1H-pyrazol-3-yl)pyrazine-2-carboxamide]
–	49	6.72	–	CCN(CC)CCNC(=O)c1nc(-c2ccc3ncccc3c2)c(-c2ccccc2)nc1N [compound 107, 3-amino-N-(2-(diethylamino)ethyl)-5-phenyl-6-(quinolin-6-yl)pyrazine-2-carboxamide]
8.96	80	–	–	C[C@@H](NC(=O)c1nc(-c2cc(Cl)c3ncccc3c2)c(-c2ccccc2)nc1N)c1cccc(C#N)n1 [Compound No. 121, (R)-3-amino-6-(8-chloroquinolin-6-yl)-N-(1-(6-cyanopyridin-2-yl)ethyl)-5-phenylpyrazine-2-carboxamide]
8.27	98	–	–	C[C@H](NC(=O)c1nc(-c2ccc3ncccc3c2)c(-c2ccccc2)nc1N)c1cccc(C#N)n1 [Compound No. 116, (S)-3-amino-N-(1-(6-cyanopyridin-2-yl)ethyl)-5-phenyl-6-(quinolin-6-yl)pyrazine-2-carboxamide]
8.17	45	–	–	CC(NC(=O)c1nc(-c2ccc3ncccc3c2)c(-c2ccccc2)nc1N)c1ncccn1 (centres unmarked) [Compound No. 120, 3-amino-5-phenyl-N-(1-(pyrimidin-2-yl)ethyl)-6-(quinolin-6-yl)pyrazine-2-carboxamide]
7.19	74	–	–	C[C@@H](NC(=O)c1nc(-c2ccc3ncccc3c2)c(-c2ccccc2)nc1N)c1cccc(C#N)n1 [Compound No. 115, (R)-3-amino-N-(1-(6-cyanopyridin-2-yl)ethyl)-5-phenyl-6-(quinolin-6-yl)pyrazine-2-carboxamide]
8.33	–	–	–	CC(NC(=O)c1nc(-c2ccc3ncccc3c2)c(-c2ccn(C)n2)nc1N)c1ccccn1 (centres unmarked) [Compound No. 459, 3-amino-5-(1-methyl-1H-pyrazol-3-yl)-N-(1-(pyridin-2-yl)ethyl)-6-(quinolin-6-yl)pyrazine-2-carboxamide]
8.33	58	–	–	C[C@@H](NC(=O)c1nc(-c2cc(Cl)c3ncccc3c2)c(-c2ccccc2)nc1N)c1ccccn1 [Compound No. 113, (R)-3-amino-6-(8-chloroquinolin-6-yl)-5-phenyl-N-(1-(pyridin-2-yl)ethyl)pyrazine-2-carboxamide]
7.80	92	–	–	C[C@H](NC(=O)c1nc(-c2ccc3ncccc3c2)c(-c2cccc(C#N)c2)nc1N)c1cccc(C#N)n1 [Compound No. 118, (S)-3-amino-5-(3-cyanophenyl)-N-(1-(6-cyanopyridin-2-yl)ethyl)-6-(quinolin-6-yl)pyrazine-2-carboxamide]
8.41	61	–	–	C[C@H](NC(=O)c1nc(-c2ccc3ncccc3c2)c(-c2ccccc2)nc1N)c1cnccn1 [Compound No. 129, (S)-3-amino-5-phenyl-N-(1-(pyrazin-2-yl)ethyl)-6-(quinolin-6-yl)pyrazine-2-carboxamide]
